{"source": "patent US9399637B2", "about": "“Substituted heteroaryl compounds and methods of use” (Calitor Sciences, LLC, priority 2014, dated 2016)", "key": {"[1]": {"test": "Compound stability in human liver microsomes", "format": "in vitro ADME", "conditions": "pH 7.4; for half-life at 5 μM: human liver microsomes 0.5 mg protein/mL, compound 5 μM, NADPH, 37° C., read-out: Human T1/2; for CLint scaled at 5 μM: human liver microsomes, in vivo CLint extrapolated", "method": "Human or rat liver microsomes incubations were conducted in duplicate in polypropylene tubes. The typical incubation mixtures consisted of human or rat liver microsomes (0.5 mg protein/mL), compounds of interest (5 μM) and NADPH (1.0 mM) in a total volume of 200 μL potassium phosphate buffer (PBS, 100 mM, pH 7.4). Compounds were dissolved in DMSO and diluted with PBS such that the final concentration of DMSO was 0.05%. The enzymatic reactions were commenced with the addition of […] after a 3-min preincubation and incubated in a water bath open to the air at 37° C. Reactions were terminated at various time points (0, 5, 10, 15, 30, 60 min) by adding equal volume of ice-cold acetonitrile. The samples were stored at […] until LC/MS/MS assays.\nThe concentrations of compounds in the incubation mixtures of human or rat liver microsomes were determined by a LC/MS/MS method. The ranges of the linearity in the concentration range were determined for each tested compounds.\nA parallel incubation was performed using denatured microsomes as the negative control, and reactions were terminated at various time points (0, 15, 60 min) after incubation at 37° C.\nDextromethorphan (70 μM) was selected as the positive control, and reactions were terminated at various time points (0, 5, 10, 15, 30, 60 min) after incubation at 37° C. Both positive and negative control samples were included in each assay to ensure the integrity of the microsomal incubation system.\nThe concentrations of compounds in human or rat liver microsome incubations were plotted as a percentage of the relevant zero time point control for each reaction. The in vivo CLint were extrapolated (ref.: Naritomi, Y.; Terashita, S.; Kimura, S.; Suzuki, A.; Kagayama, A.; and Sugiyama, Y.; Prediction of human hepatic clearance from in vivo animal experiments and in vitro metabolic studies with liver microsomes from animals and humans. Drug Metab. Dispos., 2001, 29: 1316-1324)."}, "FLT3 (h)": {"molecular_target": "T1, FLT3 (h) (Homo sapiens, UniProt P36888)", "T1 construct": "purchased Millipore UK Ltd (assays run there as a service)", "T1 sequence (P36888 27-993)": "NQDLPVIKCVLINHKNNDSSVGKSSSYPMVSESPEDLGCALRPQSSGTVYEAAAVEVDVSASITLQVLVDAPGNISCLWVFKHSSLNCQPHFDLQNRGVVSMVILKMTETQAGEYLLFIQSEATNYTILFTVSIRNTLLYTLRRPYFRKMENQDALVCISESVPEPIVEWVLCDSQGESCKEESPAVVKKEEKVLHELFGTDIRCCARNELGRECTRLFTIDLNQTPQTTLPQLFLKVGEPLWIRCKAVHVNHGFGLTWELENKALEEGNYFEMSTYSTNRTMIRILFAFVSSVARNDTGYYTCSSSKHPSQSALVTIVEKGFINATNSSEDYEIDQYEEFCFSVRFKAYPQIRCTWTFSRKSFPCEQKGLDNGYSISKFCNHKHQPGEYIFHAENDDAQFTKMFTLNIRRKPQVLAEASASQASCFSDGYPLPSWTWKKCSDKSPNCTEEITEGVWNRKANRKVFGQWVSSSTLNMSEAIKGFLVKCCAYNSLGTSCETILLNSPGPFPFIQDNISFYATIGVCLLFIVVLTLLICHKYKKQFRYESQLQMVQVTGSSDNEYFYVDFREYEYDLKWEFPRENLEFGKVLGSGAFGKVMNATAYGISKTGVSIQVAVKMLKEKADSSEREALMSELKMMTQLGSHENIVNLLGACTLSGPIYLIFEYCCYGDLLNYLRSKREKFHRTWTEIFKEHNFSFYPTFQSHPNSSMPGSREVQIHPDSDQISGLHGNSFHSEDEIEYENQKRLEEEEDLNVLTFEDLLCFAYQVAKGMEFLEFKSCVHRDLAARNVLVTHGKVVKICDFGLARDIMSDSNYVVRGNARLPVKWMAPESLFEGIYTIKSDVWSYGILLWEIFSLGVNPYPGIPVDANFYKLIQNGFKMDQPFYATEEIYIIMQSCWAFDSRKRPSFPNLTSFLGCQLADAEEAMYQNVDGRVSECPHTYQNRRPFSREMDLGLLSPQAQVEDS", "test": "FLT3 kinase assay", "format": "biochemical", "method": "Kinase assays can be performed by measurement of incorporation of γ-^33P ATP into immobilized myelin basic protein (MBP). High binding white 384 well plates (Greiner) are coated with MBP (Sigma #M-1891) by incubation of 60 μL/well of 20 μg/mL MBP in Tris-buffered saline (TBS; 50 mM Tris pH 8.0, 138 mM NaCl, 2.7 mM KCl) for 24 h at 4° C. Plates are washed 3× with 100 μL TBS. Kinase reactions are carried out in a total volume of 34 μL in kinase buffer (5 mM Hepes pH 7.6, 15 mM NaCl, 0.01% bovine gamma globulin (Sigma #I-5506), 10 mM MgCl2, 1 mM DTT, 0.02% TritonX-100). Compound dilutions are performed in DMSO and added to assay wells to a final DMSO concentration of 1%. Each data point is measured in duplicate, and at least two duplicate assays are performed for each individual compound determination. Enzyme is added to final concentrations of 10 nM or 20 nM, for example. A mixture of unlabeled ATP and γ-^33P ATP is added to start the reaction (2×10^6 cpm of γ-^33P ATP per well (3000 Ci/mmole) and 10 μM unlabeled ATP, typically. The reactions are carried out for 1 h at room temperature with shaking Plates are washed 7× with TBS, followed by the addition of 50 μL/well scintillation fluid (Wallac). Plates are read using a Wallac Trilux counter. This is only one format of such assays; various other formats are possible, as known to one skilled in the art. […]"}}}
{"molecule": "CC(=O)N1CCC2(CCC(Nc3nc(Nc4ccc5c(C)n(C)nc5c4)ncc3Cl)CC2)CC1", "note": "[Ex. 7, 1-(9-((5-chloro-2-((2,3-dimethyl-2H-indazol-6-yl)amino)pyrimidin-4-yl)amino)-3-azaspiro[5.5]undecan-3-yl)ethanone]", "values": [{"measurement": "half-life at 5 μM", "setting": "[1]", "result": 42.9, "unit": "min"}, {"measurement": "CLint scaled at 5 μM", "setting": "[1]", "result": 2.43, "unit": "L/h/kg"}, {"measurement": "IC50", "setting": "FLT3 (h)", "result": 0.003, "unit": "µM"}]}
{"molecule": "Cc1c2ccc(Nc3ncc(Cl)c(NC4CC5CN(C(=O)CC#N)CC5C4)n3)cc2nn1C", "note": "(stereo not drawn) [Ex. 4, 3-(5-((5-chloro-2-((2,3-dimethyl-2H-indazol-6-yl)amino)pyrimidin-4-yl)amino)hexahydrocyclopenta[c]pyrrol-2(1H)-yl)-3-oxopropanenitrile]", "values": [{"measurement": "half-life at 5 μM", "setting": "[1]", "result": 14.3, "unit": "min"}, {"measurement": "CLint scaled at 5 μM", "setting": "[1]", "result": 7.29, "unit": "L/h/kg"}, {"measurement": "IC50", "setting": "FLT3 (h)", "result": 0.545, "unit": "µM"}]}
